Assay [1] deals with Platelet-derived growth factor receptor (Homo sapiens) (UniProt P09619+P16234). Briefly: Inhibitory activity against platelet-derived growth factor receptor (PDGFr) at 50 uM.
In assay [2] the target is T1, Fibroblast growth factor receptor (Homo sapiens, UniProt P22607+P11362+P22455+P21802). Description: Inhibitory activity against fibroblast growth factor receptor (FGFr). Type of assay: protein assay.
Assay [3] concerns the target T2, Proto-oncogene tyrosine-protein kinase Src (Homo sapiens, UniProt P12931). Briefly: Inhibitory activity against c-src tyrosine kinase.
Assay [4] concerns the target T1, Fibroblast growth factor receptor. Description: Inhibitory activity against fibroblast growth factor receptor (FGFr) at 50 uM. Type of assay: protein assay.
The target of assay [5] is T2, Proto-oncogene tyrosine-protein kinase Src. Briefly: Inhibitory activity against c-src tyrosine kinase at 50 uM.

T1 sequence (P11362 whole entry, looked up): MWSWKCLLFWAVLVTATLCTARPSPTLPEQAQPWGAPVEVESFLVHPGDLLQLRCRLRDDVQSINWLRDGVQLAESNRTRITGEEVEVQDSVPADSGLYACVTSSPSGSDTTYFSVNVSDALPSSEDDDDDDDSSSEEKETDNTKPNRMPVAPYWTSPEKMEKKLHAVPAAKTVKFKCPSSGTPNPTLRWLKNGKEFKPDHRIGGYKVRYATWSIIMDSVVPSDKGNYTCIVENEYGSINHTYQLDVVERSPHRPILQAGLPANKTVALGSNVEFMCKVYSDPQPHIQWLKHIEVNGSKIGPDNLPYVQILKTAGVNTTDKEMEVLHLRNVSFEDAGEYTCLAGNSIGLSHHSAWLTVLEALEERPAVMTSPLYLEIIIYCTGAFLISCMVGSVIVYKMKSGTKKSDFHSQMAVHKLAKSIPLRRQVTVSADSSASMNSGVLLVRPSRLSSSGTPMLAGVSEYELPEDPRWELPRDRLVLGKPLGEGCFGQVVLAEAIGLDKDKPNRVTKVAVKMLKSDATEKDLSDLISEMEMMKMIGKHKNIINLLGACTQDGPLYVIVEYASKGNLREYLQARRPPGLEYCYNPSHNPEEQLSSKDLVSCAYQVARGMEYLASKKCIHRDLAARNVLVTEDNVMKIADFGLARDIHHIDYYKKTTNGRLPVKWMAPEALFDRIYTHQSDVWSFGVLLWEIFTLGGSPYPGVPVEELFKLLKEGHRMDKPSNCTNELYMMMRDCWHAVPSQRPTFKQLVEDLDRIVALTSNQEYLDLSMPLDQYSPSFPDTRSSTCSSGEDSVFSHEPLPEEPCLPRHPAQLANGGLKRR
T1 sequence (P21802 whole entry, looked up): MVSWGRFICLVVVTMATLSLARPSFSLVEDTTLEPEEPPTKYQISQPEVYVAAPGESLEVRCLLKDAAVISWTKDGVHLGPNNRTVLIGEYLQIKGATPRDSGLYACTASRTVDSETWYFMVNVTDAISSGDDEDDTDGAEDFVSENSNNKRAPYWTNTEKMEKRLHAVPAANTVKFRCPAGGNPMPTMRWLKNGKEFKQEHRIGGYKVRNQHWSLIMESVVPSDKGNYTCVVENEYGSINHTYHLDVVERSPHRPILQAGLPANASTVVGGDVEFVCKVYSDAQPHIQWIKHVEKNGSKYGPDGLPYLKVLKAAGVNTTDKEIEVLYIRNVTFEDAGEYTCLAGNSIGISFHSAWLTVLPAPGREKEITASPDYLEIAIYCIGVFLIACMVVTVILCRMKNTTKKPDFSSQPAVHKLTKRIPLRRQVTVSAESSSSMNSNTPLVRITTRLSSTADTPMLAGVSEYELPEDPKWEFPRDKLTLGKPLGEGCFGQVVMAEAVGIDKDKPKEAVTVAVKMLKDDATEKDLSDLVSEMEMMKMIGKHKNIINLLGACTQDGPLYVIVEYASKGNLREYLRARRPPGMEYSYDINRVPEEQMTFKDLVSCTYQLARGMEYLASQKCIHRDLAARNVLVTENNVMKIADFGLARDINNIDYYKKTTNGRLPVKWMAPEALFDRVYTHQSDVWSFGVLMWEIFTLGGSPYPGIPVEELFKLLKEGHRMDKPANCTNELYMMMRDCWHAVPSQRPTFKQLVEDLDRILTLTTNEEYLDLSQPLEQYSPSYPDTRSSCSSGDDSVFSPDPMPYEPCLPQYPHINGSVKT
T1 sequence (P22455 whole entry, looked up): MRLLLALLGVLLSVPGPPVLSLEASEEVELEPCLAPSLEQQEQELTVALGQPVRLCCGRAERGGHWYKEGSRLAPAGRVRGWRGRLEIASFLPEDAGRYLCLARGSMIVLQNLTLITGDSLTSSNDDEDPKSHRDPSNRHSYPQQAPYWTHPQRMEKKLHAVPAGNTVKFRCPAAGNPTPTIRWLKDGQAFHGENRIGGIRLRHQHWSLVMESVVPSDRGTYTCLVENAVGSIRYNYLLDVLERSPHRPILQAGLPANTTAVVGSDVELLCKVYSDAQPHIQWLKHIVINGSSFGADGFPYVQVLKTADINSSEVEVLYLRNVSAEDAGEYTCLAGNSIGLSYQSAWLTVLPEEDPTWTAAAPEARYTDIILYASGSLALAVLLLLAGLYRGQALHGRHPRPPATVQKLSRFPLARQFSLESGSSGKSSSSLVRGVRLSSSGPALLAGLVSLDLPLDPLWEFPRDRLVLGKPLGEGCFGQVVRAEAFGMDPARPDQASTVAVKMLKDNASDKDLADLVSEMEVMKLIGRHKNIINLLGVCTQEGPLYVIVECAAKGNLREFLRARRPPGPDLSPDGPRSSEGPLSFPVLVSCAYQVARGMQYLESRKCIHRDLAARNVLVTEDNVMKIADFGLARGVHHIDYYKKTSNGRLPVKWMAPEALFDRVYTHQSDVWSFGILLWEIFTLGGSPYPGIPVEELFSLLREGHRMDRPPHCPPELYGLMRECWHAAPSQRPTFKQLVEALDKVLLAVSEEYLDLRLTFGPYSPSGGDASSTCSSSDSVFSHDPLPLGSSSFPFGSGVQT
T1 sequence (P22607 whole entry, looked up): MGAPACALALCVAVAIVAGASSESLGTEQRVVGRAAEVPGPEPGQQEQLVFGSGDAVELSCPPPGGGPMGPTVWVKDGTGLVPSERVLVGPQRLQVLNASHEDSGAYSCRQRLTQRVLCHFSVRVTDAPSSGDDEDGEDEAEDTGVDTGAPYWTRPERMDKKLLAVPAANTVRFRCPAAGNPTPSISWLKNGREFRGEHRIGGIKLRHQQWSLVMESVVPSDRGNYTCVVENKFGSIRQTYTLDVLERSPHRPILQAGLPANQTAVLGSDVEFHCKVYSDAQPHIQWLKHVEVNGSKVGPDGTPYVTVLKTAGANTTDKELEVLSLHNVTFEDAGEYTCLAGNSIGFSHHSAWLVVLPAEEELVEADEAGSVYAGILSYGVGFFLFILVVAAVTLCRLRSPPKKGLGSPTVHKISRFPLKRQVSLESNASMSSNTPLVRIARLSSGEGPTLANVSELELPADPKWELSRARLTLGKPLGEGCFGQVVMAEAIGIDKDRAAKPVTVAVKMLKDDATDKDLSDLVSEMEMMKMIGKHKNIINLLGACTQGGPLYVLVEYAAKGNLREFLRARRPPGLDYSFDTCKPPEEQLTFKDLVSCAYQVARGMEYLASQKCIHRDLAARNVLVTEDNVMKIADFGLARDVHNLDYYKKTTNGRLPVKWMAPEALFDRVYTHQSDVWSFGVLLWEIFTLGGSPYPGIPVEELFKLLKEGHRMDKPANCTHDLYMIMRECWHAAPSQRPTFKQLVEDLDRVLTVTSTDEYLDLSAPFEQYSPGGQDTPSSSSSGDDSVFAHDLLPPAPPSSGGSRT
T2 sequence (P12931 2-536 limits assumed): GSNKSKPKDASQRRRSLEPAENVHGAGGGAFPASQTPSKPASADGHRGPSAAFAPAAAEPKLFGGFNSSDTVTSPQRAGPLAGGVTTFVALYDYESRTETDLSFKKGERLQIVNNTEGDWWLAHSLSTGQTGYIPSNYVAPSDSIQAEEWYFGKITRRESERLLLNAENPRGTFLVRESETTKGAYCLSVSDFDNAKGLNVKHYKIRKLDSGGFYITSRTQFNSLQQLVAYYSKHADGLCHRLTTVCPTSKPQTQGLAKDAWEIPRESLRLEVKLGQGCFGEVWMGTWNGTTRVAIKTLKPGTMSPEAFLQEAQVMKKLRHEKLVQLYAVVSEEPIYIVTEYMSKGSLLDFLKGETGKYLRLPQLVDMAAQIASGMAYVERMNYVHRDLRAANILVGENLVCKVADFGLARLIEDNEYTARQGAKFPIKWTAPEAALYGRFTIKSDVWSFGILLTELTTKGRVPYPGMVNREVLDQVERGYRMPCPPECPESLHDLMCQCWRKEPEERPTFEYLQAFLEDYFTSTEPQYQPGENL

For the molecule `COC(=O)C1=C(c2ccccc2)c2cc(C)ccc2C1=O.COC(=O)C1=C(c2ccccc2)c2ccc(C)cc2C1=O`, in assay [1], the inhibition (as a rule, the share of the control response that was lost under treatment) worked out at 20%. Further, the IC50 – broadly, the concentration at which inhibition is half-maximal – in assay [2] was 6.4 µM; in assay [3], 33 µM.
On to `COC(=O)C1=C(c2ccccc2)c2ccccc2C1=O`, for which the inhibition in assay [1] stood at 19%. In addition, the IC50 came to 5.1 µM in assay [2] and 25 µM in assay [3].
On to `C/C=C1\c2ccccc2C(=O)C1C(N)=O` (configuration not stated), for which the inhibition in assay [4] came to 26%; in assay [1] it was 8%; in assay [5], 3%.
As for `NC(=O)C1=C(c2ccc(Cl)cc2)c2ccccc2C1=O`, the inhibition in assay [1] was 27%. Also, the IC50 was 5.4 µM in assay [2] and 9.6 µM in assay [3].
For the molecule `COC(=O)C1=C(c2ccccc2)c2cccc(C)c2C1=O`, the inhibition in assay [1] stood at 11%; in assay [5], 38%. This molecule came in with an IC50 in assay [2] of 44 µM.
On to `NC(=O)C1=C(c2ccccc2)c2ccccc2C1O` (configuration not stated), for which the inhibition turned out to be 29% in assay [4], 10% in assay [1] and 27% in assay [5].
Turning to `NC(=O)C1C(=O)c2ccccc2C1c1ccccc1` (configuration not stated), the inhibition in assay [4] came out at 23%; in assay [1], 16%; in assay [5] it was 8%.
With `CNC(=O)C1=C(c2ccccc2)c2ccccc2C1=O`, the inhibition amounted to 24% in assay [1] and 16% in assay [5]. The IC50 in assay [2] was found to be 21 µM.
In the case of `COC(=O)C1=C(c2ccccc2)c2cc([N+](=O)[O-])ccc2C1=O.COC(=O)C1=C(c2ccccc2)c2ccc([N+](=O)[O-])cc2C1=O`, the inhibition in assay [1] came out at 19%. The figures for the IC50 in assay [2] and in assay [3] were 10 µM and 8.3 µM, respectively.
As for `COC(=O)C1=C(c2ccccc2)c2cc(Cl)ccc2C1=O.COC(=O)C1=C(c2ccccc2)c2ccc(Cl)cc2C1=O`, the values for the inhibition in assay [1] and in assay [5] were 25% and 10%, respectively. The same molecule registered an IC50 in assay [2] of 6.2 µM.
With `CN(C)C(=O)C1=C(c2ccccc2)c2ccccc2C1=O`, the inhibition in assay [4] came to 10%; in assay [1] it was 10%; in assay [5] it was 1%.
`COc1ccc(C2=C(C(N)=O)C(=O)c3ccccc32)cc1` came in with an inhibition in assay [1] of 23%. Moreover, the IC50 in assay [2] amounted to 10.6 µM; in assay [3], 4 µM.
Consider `CCN(CC)CCNC(=O)C1=C(c2ccccc2)c2ccccc2C1=O`, for which the inhibition in assay [4] was 21%; in assay [1], 8%; in assay [5], 11%.
`COC(=O)C1=C(c2ccccc2)c2ccncc2C1=O`: in assay [1], the inhibition was determined as 27%. Besides, the IC50 was determined as 6.8 µM in assay [2] and 7.6 µM in assay [3].
On to `O=C(O)C1=C(c2ccccc2)c2ccccc2C1=O`, for which the inhibition in assay [1] worked out at 9%; in assay [5] it was 7%. In assay [2], this molecule yielded an IC50 of 25 µM.
In assay [1], `COC(=O)C1=C(c2ccccc2)c2c(OC)cccc2C1=O` returned an inhibition of 19%. The values for the IC50 in assay [2] and in assay [3] were 15 µM and 13 µM, respectively.
In the case of `NC(=O)C1=C2CCCc3cccc(c32)C1=O`, the inhibition is 25% in assay [1] and 48% in assay [5]. In assay [2], this molecule came in with an IC50 of 4.2 µM.
Consider `CCC1=C(C(N)=O)C(=O)c2ccccc21`, for which the inhibition is 8.7% in assay [1] and 53% in assay [5]. Moreover, the IC50 in assay [2] was found to be 9.2 µM.
Take `NC(=O)C1=C(c2ccccc2)c2ccccc2C1=O`: the inhibition in assay [1] was determined as 25%. Moreover, the IC50 came out at 4.7 µM in assay [2] and 3.6 µM in assay [3].

Source of the values: ChEMBL document CHEMBL1129223, “1-Oxo-3-aryl-1H-indene-2-carboxylic acid derivatives as selective inhibitors of fibroblast growth factor receptor-1 tyrosine kinase” (Bioorg Med Chem Lett, 1997).
